We go through 14 molecules from ChEMBL document CHEMBL1201862, “PubChem BioAssay data set” (2004).

For orientation: GI50 means the concentration giving 50% growth inhibition.

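Results reflect a 48-hour exposure of cells in 96-well plates to compound at five concentrations. GI50: concentration for 50% inhibition of growth.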 The source made the active and inactive calls. No stated cut-off is given here; in the data, active = GI50 up to about 1.1 µM and inactive = higher.

Some test systems named below: UACC-257; RPMI-8226; HT-29; SK-MEL-2; CCRF-CEM; SN12C; SNB-19; SF-539; SNB-75; NCI-H460; HCC 2998; HCT-116; IGROV-1; MOLT-4; 786-0.
Assay in all cases: DTP human tumour cell line panel, 48 h

In the case of `CC(=O)c1ccc2c(c1)c1c(C)c3c[n+](C)ccc3c(C)c1n2C`, the GI50 is 6.35 µM (inactive) in the assay on UACC-257; 3.84 µM (inactive) in the assay on RPMI-8226; 13.2 µM (inactive) with HT-29; 7.14 µM (inactive) in the assay with SK-MEL-2; 3.76 µM (inactive) in the assay with CCRF-CEM; 0.499 µM (active) in the assay on SN12C. Besides, the GI50 was 1.07 µM (active) in the assay with SNB-19; 2.37 µM (inactive) with SF-539; 7.48 µM (inactive) with SNB-75; 2.76 µM (inactive) with NCI-H460; 29.5 µM (inactive) with HCC 2998; 2.29 µM (inactive) with HCT-116. Further, the values for the GI50 in the assay with IGROV-1 and in the assay on MOLT-4 were 16.5 µM (inactive) and 0.641 µM (active), respectively.

With `C/C(=C\c1ccccc1)C(O)C(=O)c1nc2ccc(Cl)cc2nc1O` (configuration not stated), the GI50 in the assay on UACC-257 was > 100 µM (inactive); in the assay with RPMI-8226, 12.5 µM (inactive); with HT-29, > 100 µM (inactive); in the assay on SK-MEL-2 it was > 100 µM (inactive); in the assay with CCRF-CEM, 13.6 µM (inactive); with SN12C, > 100 µM (inactive). In addition, the GI50 in the assay on SNB-19, with SF-539, with NCI-H460, in the assay on HCC 2998, in the assay on HCT-116 and with IGROV-1 was > 100 µM (inactive) throughout. Besides, the GI50 with MOLT-4 was 48.3 µM (inactive); in the assay on 786-0 it was > 100 µM (inactive).

Consider `COc1ccc(C2=CC3CCC2C3)cc1` (configuration not stated), for which the GI50 with UACC-257, in the assay with RPMI-8226, in the assay with HT-29, in the assay on SK-MEL-2, with CCRF-CEM and in the assay with SN12C was > 100 µM (inactive) each time. For the same molecule, the GI50 in the assay on SNB-19, in the assay on SF-539, in the assay with SNB-75, in the assay with NCI-H460, in the assay with HCT-116 and with IGROV-1 was > 100 µM (inactive) each time. Moreover, the GI50 in the assay on MOLT-4 and with 786-0 was > 100 µM (inactive) in each case.

Regarding `Cc1nc(-c2nc([N+](=O)[O-])c([N+](=O)[O-])[nH]2)cs1`, the GI50 in the assay with UACC-257, in the assay with RPMI-8226, in the assay on HT-29, with SK-MEL-2, in the assay with CCRF-CEM and in the assay with SN12C was > 100 µM (inactive) each time. For the same molecule, the GI50 with SNB-19, in the assay with SF-539, with SNB-75, with NCI-H460, with HCC 2998 and with HCT-116 was > 100 µM (inactive) in each case. Moreover, the GI50 with IGROV-1 and in the assay with MOLT-4 was > 100 µM (inactive) in each case.

On to `COc1cccc(-c2nccc3c(OCc4ccccc4)c(OC)c(OC)cc23)c1`, for which the GI50 in the assay on UACC-257 was > 100 µM (inactive); in the assay with RPMI-8226, 7.08 µM (inactive); with HT-29, 12 µM (inactive); in the assay with SK-MEL-2, 30.1 µM (inactive); in the assay with CCRF-CEM, 5.68 µM (inactive); in the assay on SN12C, 7.67 µM (inactive). The GI50 in the assay on SNB-19 is > 100 µM (inactive); in the assay on SF-539 it was > 100 µM (inactive); in the assay with SNB-75, > 100 µM (inactive); in the assay with HCC 2998 it was 58.3 µM (inactive); in the assay on HCT-116, 7.57 µM (inactive); in the assay with IGROV-1 it was > 100 µM (inactive). Moreover, the GI50 in the assay on MOLT-4 was 5.53 µM (inactive); in the assay on 786-0, > 10 µM (inactive).

Consider `O=C(O)C1Cc2[nH]c3ccccc3c2C2CCCC12` (configuration not stated), for which the GI50 with UACC-257, in the assay on SK-MEL-2, in the assay with CCRF-CEM, with SN12C, in the assay on SNB-19 and in the assay with SF-539 was > 100 µM (inactive) each time. For the same molecule, the GI50 is 46.3 µM (inactive) with SNB-75; > 100 µM (inactive) in the assay on NCI-H460; > 100 µM (inactive) with HCC 2998; > 100 µM (inactive) in the assay with HCT-116; > 100 µM (inactive) in the assay on IGROV-1; > 100 µM (inactive) in the assay on MOLT-4. The GI50 in the assay with 786-0 is > 100 µM (inactive).

On to `Oc1cccc2nc3cc(CN4CCOCC4)c(CN4CCOCC4)cc3nc12`, for which the GI50 in the assay with UACC-257 was > 100 µM (inactive); in the assay on HT-29, 48.8 µM (inactive); with SK-MEL-2, > 100 µM (inactive); in the assay with CCRF-CEM it was 44.9 µM (inactive); in the assay with SN12C it was 79.3 µM (inactive); with SNB-19, > 100 µM (inactive). Besides, the GI50 in the assay on SF-539 is 38.3 µM (inactive); in the assay on SNB-75, > 100 µM (inactive); in the assay on NCI-H460, 54.3 µM (inactive); in the assay on HCC 2998, 50.8 µM (inactive); in the assay with HCT-116, 52.2 µM (inactive); in the assay with IGROV-1, > 100 µM (inactive). The GI50 in the assay with MOLT-4 is 31.9 µM (inactive); in the assay with 786-0, 59.7 µM (inactive).

In the case of `COc1cc2ccc3c4c(OC)cc(OC)c(OC)c4c([O-])[n+](C)c3c2cc1OC`, the GI50 in the assay on UACC-257 is 17.9 µM (inactive); in the assay with RPMI-8226 it was 0.368 µM (active); with HT-29 it was 6.47 µM (inactive); with SK-MEL-2 it was 21.9 µM (inactive); in the assay on SN12C, 1.74 µM (inactive); in the assay with SNB-19, 15.7 µM (inactive). In addition, the GI50 was > 32.7 µM (inactive) in the assay with SF-539; 11.8 µM (inactive) in the assay with SNB-75; 14.4 µM (inactive) in the assay on HCC 2998; 11.5 µM (inactive) in the assay with HCT-116; 6.98 µM (inactive) in the assay on IGROV-1; 1.67 µM (inactive) with MOLT-4. For the same molecule, the GI50 in the assay on 786-0 is > 100 µM (inactive).

Consider `CC(=O)NNc1nc(C)c(C(=O)NNC(=O)C(=O)Nc2ccc(Cl)cc2)s1`, for which the GI50 with UACC-257 is > 100 µM (inactive); in the assay on RPMI-8226, > 100 µM (inactive); in the assay on HT-29 it was > 100 µM (inactive); with SK-MEL-2, > 100 µM (inactive); in the assay on CCRF-CEM, 25.3 µM (inactive); with SN12C it was > 100 µM (inactive). Besides, the GI50 with SNB-19, in the assay with SF-539, with NCI-H460, with HCC 2998, with HCT-116 and in the assay with IGROV-1 was > 100 µM (inactive) each time. For the same molecule, the GI50 in the assay on MOLT-4 is 37.4 µM (inactive); with 786-0 it was > 100 µM (inactive).

In the case of `CCCn1cc2c(SC)nc(SC)nc2n1`, the GI50 in the assay on UACC-257, in the assay on RPMI-8226, in the assay on HT-29, with SK-MEL-2, in the assay with CCRF-CEM and with SN12C was > 100 µM (inactive) in each case. Also, the GI50 in the assay with SNB-19, in the assay on SF-539, in the assay with SNB-75, in the assay on NCI-H460, in the assay on HCC 2998 and with HCT-116 was > 100 µM (inactive) throughout. In addition, the GI50 in the assay with IGROV-1 and with MOLT-4 was > 100 µM (inactive) throughout.

For the molecule `C1=CC(=NN=P(c2ccccc2)(c2ccccc2)c2ccccc2)C=C1`, the GI50 with UACC-257, with RPMI-8226, in the assay with HT-29, in the assay on SK-MEL-2, in the assay on CCRF-CEM and with SN12C was > 100 µM (inactive) in each case. For the same molecule, the GI50 in the assay with SNB-19, in the assay with SNB-75, in the assay with NCI-H460, in the assay with HCC 2998, in the assay with IGROV-1 and with MOLT-4 was > 100 µM (inactive) throughout. Also, in the assay with 786-0, the GI50 was > 100 µM (inactive).

For the molecule `Nc1ccc(/N=N/c2ccc(/C=C/c3ccc(/N=N/c4ccc(N)c5ccc(S(=O)(=O)O)cc45)cc3S(=O)(=O)O)c(S(=O)(=O)O)c2)c2cc(S(=O)(=O)O)ccc12`, the GI50 with UACC-257, with RPMI-8226, in the assay with HT-29, with SK-MEL-2, with CCRF-CEM and with SN12C was > 100 µM (inactive) throughout. Besides, the GI50 in the assay on SNB-19 was > 100 µM (inactive); in the assay with SF-539, > 100 µM (inactive); with SNB-75, 56.2 µM (inactive); in the assay on NCI-H460, > 100 µM (inactive); in the assay with HCC 2998, > 100 µM (inactive); in the assay with HCT-116, > 100 µM (inactive). The GI50 in the assay on IGROV-1 and in the assay on MOLT-4 was > 100 µM (inactive) in each case.

With `c1ccc(N2N=C(c3ccco3)CC2c2ccco2)cc1` (configuration not stated), the GI50 was 35.2 µM (inactive) in the assay on RPMI-8226; 75.9 µM (inactive) in the assay with HT-29; > 100 µM (inactive) in the assay on SK-MEL-2; 42.3 µM (inactive) with CCRF-CEM; > 100 µM (inactive) with SN12C; > 100 µM (inactive) in the assay with SNB-19. The GI50 in the assay on SF-539 was > 100 µM (inactive); in the assay on SNB-75, 22.3 µM (inactive); in the assay on NCI-H460 it was 66.1 µM (inactive); with HCT-116, 32.5 µM (inactive); with IGROV-1 it was > 100 µM (inactive); in the assay on MOLT-4, 20.5 µM (inactive). Also, the GI50 in the assay with 786-0 is > 100 µM (inactive).

For the molecule `C#C[C@H]1CCCCCC1O` (some centres not stated), the GI50 was > 100 µM (inactive) in the assay with UACC-257; > 100 µM (inactive) in the assay on HT-29; > 100 µM (inactive) with SK-MEL-2; 59 µM (inactive) in the assay with CCRF-CEM; > 100 µM (inactive) with SN12C; > 100 µM (inactive) in the assay on SNB-19. The GI50 in the assay on SF-539, in the assay on SNB-75, with NCI-H460, in the assay on HCC 2998, with HCT-116 and with IGROV-1 was > 100 µM (inactive) each time. For the same molecule, the GI50 in the assay with MOLT-4 and in the assay with 786-0 was > 100 µM (inactive) throughout.
